{"source": "patent US20240409534A1", "about": "“CRYSTAL FORM OF METHYLPYRAZOLE-SUBSTITUTED PYRIDOIMIDAZOLE COMPOUND AND PREPARATION METHOD THEREFOR” (priority 2021, published 2024)", "key": {"Ba/F3-TEL-FLT4 (VEGFR3)": {"tested_on": "Ba/F3-TEL-FLT4 (VEGFR3)", "assay": "In vitro proliferation of BaF3 cell line, Ba/F3-TEL-FLT4", "assay_type": "cell-based", "method": "The mother solution was prepared into a total of 9 concentration gradients (10.0000 mM, 2.5000 mM, 0.6250 mM, 0.1563 mM, 0.0391 mM, 0.0098 mM, 0.0024 mM, 0.0006 mM and 0.0002 mM) in a 4-fold dilution and stored in a 96-well plate (Beaver, Suzhou), while the same volume of DMSO solvent was used as a negative control. • 1. Cell suspension in logarithmic growth phase was taken and inoculated in a white 96-well cell culture plate (Corning 3917, NY, USA) with a volume of 95 μL per well (2000 cells/well). • 2. Diluted medium-compound mixture was added in a volume of 5 μL per well, respectively, and the final concentration of DMSO in Ba/F3-TEL-FLT1 (VEGFR1), Ba/F3-TEL-FLT4 (VEGFR3) and Ba/F3-TEL-VEGFR2 cells was 0.1%.\n• 3. The plate was incubated in a 37° C., 5% CO2 incubator for 72 h. • 4. The proliferation inhibitory activity and data analysis of the compound by CellTiter-Glo method were the same as in Experimental embodiment 1."}, "[1]": {"assay": "Pharmacokinetic evaluation in SD rats, intravenous and intragastric (Experimental Embodiment 3)", "assay_type": "in vivo", "conditions": "rat, plasma; for bioavailability: intragastric administration, read-out: drug bioavailability; for Cmax: read-out: peak concentration (Cmax); for Tmax: read-out: peak time (Tmax); for Vd: read-out: apparent volume of distribution at steady state (Vdss); for half-life: read-out: elimination half-life (T1/2) (converted); for clearance: read-out: plasma clearance (Cl)"}, "[2]": {"tested_on": "NCI-H1581 cells with high expression of FGFR1", "assay": "Cell proliferation inhibition, CellTiter-Glo, NCI-H1581", "assay_type": "cell-based", "conditions": "Homo sapiens, 72 h, NCI-H1581, cultured for 3 days", "source_text": "The compounds of the present disclosure can target and inhibit FGFR and VEGFR pathways, and inhibit tumor cell growth by inhibiting VEGF/VEGFR and FGF/FGFR signaling pathways. In this experiment, human non-small cell lung cancer cells NCI-H1581 with high expression of FGFR1, gastric cancer cells SNU-16 with high expression of FGFR2, and human bladder cancer cells RT112/84 with high expression of FGFR3 were selected. In this experiment, the inhibitory effect of compounds on cell proliferation was investigated by detecting the effect of the compounds of the present disclosure on the cell viability in vitro in the tumor cell lines NCI-H1581, SNU-16 and RT-112/84.\nRegular passage, and cells in logarithmic growth phase were taken for plating.\n• (1) Cells were stained with trypan blue and viable cells were counted. • (2) The cell concentration was adjusted to an appropriate concentration.\n• (3) 90 μL of cell suspension per well was added to a culture plate, and cell-free culture solution was added to the blank control well. • (4) The plate was cultured overnight in a 37° C., 5% CO2 incubator with 100% relative humidity.\n• (1) Preparation of 10× compound working solution: 78 μL of cell culture medium was added to a V-bottom 96-well plate, and 2 μL of compound was pipetted from a 400× compound storage plate and added to the cell culture medium of the 96-well plate. […]"}, "[3]": {"conditions": "po, female SD rats, single intragastric administration, 10 mg/kg"}, "[4]": {"conditions": "po, female SD rats, single intragastric administration, 30 mg/kg"}, "[5]": {"conditions": "po, female SD rats, single intragastric administration, 100 mg/kg"}, "[6]": {"conditions": "po, male SD rats, single intragastric administration, 10 mg/kg"}, "[7]": {"conditions": "po, male SD rats, single intragastric administration, 30 mg/kg"}, "[8]": {"conditions": "po, male SD rats, single intragastric administration, 100 mg/kg"}, "[9]": {"conditions": "female SD rats, single intravenous injection of 1 mg/kg"}, "[10]": {"conditions": "male SD rats, single intravenous injection of 1 mg/kg"}}, "note": "Where two headings read alike, the source gives them in different places.", "data": [{"smiles": "CS(=O)(=O)O.Cn1cc(-c2ccn3c(-c4cc(NS(C)(=O)=O)nc(-c5ccc(F)cc5F)c4)cnc3c2)cn1", "values": [{"measurement": "Maximum inhibition", "setting": "Ba/F3-TEL-FLT4 (VEGFR3); 72 h", "value": 100, "unit": "%"}, {"measurement": "Minimum inhibition", "setting": "Ba/F3-TEL-FLT4 (VEGFR3); 72 h", "value": "−2.54", "unit": "%"}, {"measurement": "IC50", "setting": "Ba/F3-TEL-FLT4 (VEGFR3); Mus musculus, BaF3, 72 h, read-out: Relative IC50", "value": 395, "unit": "nM"}, {"measurement": "bioavailability", "setting": "[1]; po, female SD rats, 10 mg/kg", "value": 50.3, "unit": "%"}, {"measurement": "AUC(0-t)", "setting": "[1]; [3]", "value": 24.8, "unit": "µM·h"}, {"measurement": "Cmax", "setting": "[1]; [3]", "value": 9.17, "unit": "µM"}, {"measurement": "Tmax", "setting": "[1]; [3]", "value": 40, "unit": "min"}, {"measurement": "AUC(0-t)", "setting": "[1]; [4]", "value": 65.6, "unit": "µM·h"}, {"measurement": "Cmax", "setting": "[1]; [4]", "value": 24.5, "unit": "µM"}, {"measurement": "Tmax", "setting": "[1]; [4]", "value": 60, "unit": "min"}, {"measurement": "AUC(0-t)", "setting": "[1]; [5]", "value": 125, "unit": "µM·h"}, {"measurement": "Cmax", "setting": "[1]; [5]", "value": 27.4, "unit": "µM"}, {"measurement": "Tmax", "setting": "[1]; [5]", "value": 30, "unit": "min"}, {"measurement": "bioavailability", "setting": "[1]; po, male SD rats, 10 mg/kg", "value": 18, "unit": "%"}, {"measurement": "AUC(0-t)", "setting": "[1]; [6]", "value": 7.15, "unit": "µM·h"}, {"measurement": "Cmax", "setting": "[1]; [6]", "value": 3.78, "unit": "µM"}, {"measurement": "Tmax", "setting": "[1]; [6]", "value": 30, "unit": "min"}, {"measurement": "AUC(0-t)", "setting": "[1]; [7]", "value": 38.2, "unit": "µM·h"}, {"measurement": "Cmax", "setting": "[1]; [7]", "value": 16.7, "unit": "µM"}, {"measurement": "Tmax", "setting": "[1]; [7]", "value": 60, "unit": "min"}, {"measurement": "AUC(0-t)", "setting": "[1]; [8]", "value": 113, "unit": "µM·h"}, {"measurement": "Cmax", "setting": "[1]; [8]", "value": 19.9, "unit": "µM"}, {"measurement": "Tmax", "setting": "[1]; [8]", "value": 50, "unit": "min"}, {"measurement": "AUC(0-t)", "setting": "[1]; [9]", "value": 4.93, "unit": "µM·h"}, {"measurement": "Vd", "setting": "[1]; [9]", "value": 0.366, "unit": "L/kg"}, {"measurement": "half-life", "setting": "[1]; [9]", "value": 45.9, "unit": "min"}, {"measurement": "clearance", "setting": "[1]; [9]", "value": 7.03, "unit": "mL/min/kg"}, {"measurement": "AUC(0-t)", "setting": "[1]; [10]", "value": 3.98, "unit": "µM·h"}, {"measurement": "Vd", "setting": "[1]; [10]", "value": 0.419, "unit": "L/kg"}, {"measurement": "half-life", "setting": "[1]; [10]", "value": 40.5, "unit": "min"}, {"measurement": "clearance", "setting": "[1]; [10]", "value": 8.78, "unit": "mL/min/kg"}, {"measurement": "IC50", "setting": "[2]", "value": 117, "unit": "nM"}]}]}
